Laboratory results published in patent publication US8124623B2, “5-hydroxymethyl-oxazolidin-2-one-derivatives and their uses as antibacterials” (Actelion Pharmaceuticals Ltd., priority 2006, dated 2012).
≈ marks a conversion by molar mass, not a printed value.

How the values were obtained:
[1] = test system: Lactobacillus acidophilus A-1255 DSM 20079; experiment: MIC, particular anaerobic bacterial strains; assay type: cell-based
[2] = test system: C. difficile strain NC13366; assay type: cell-based; details: 1 and 8 μg/mL, day 5 vs day 1, high density stationary phase cultures
[3] = test system: toxigenic C. difficile strain 10465; experiment: C. difficile hamster model; assay type: in vivo, Golden Syrian hamsters
Protocol: Golden Syrian hamsters were given a single injection of clindamycin phosphate (10 mg/kg s.c.), and a day later animals were infected by gavage with 10^5 CFU of toxigenic C. difficile strain 10465. A fulminant colitis results in the majority (˜95%) of animals and develops 1 to 2 days after the administration of C. difficile. Untreated, the colitis progresses rapidly and turns into severe colitis, hemorrhagic necrosis of the cecum and death. The compound of Example 1 was administered orally as a suspension at three dosage levels (10 mg/kg, 30 mg/kg and 100 mg/kg; n=10 per group). Vancomycin (50 mg/kg) was used as a control. Animals were treated once daily for 5 days and afterwards maintain under observation for an additional 21 days.
The animals were observed three times daily for morbidity and presence or absence of diarrhoea. The final endpoint of the study was survival. Animals judged to be in a moribund state [extended period of weight loss progressing to an emaciated state, anorexia for 24-48 h, prolonged lethargy (more than 3 days), signs of paralysis, skin erosions or trauma, hunched posture, distended abdomen] were euthanized by a single injection of sodium pentobarbital.

[4] = test system: Finegoldia magna A-1254 DSM 20470; experiment: MIC, particular anaerobic bacterial strains; assay type: cell-based
[5] = test system: Bacteroides thetaiotaomicron A-990 ATCC 29741; experiment: microbe, parasite or virus in culture; assay type: cell-based; details: ATCC29741
[6] = test system: C. difficile strain NC13366; assay type: cell-based; details: treated cultures compared to the untreated control, day 5
[7] = test system: Bacteroides fragilis A-992 ATCC 25285; experiment: MIC, particular anaerobic bacterial strains; assay type: cell-based; details: ATCC25285
[8] = test system: Eubacterium limosum A-1259 DSM 20698; experiment: MIC, particular anaerobic bacterial strains; assay type: cell-based
[9] = test system: Lactococcus lactis A-1256 DSM 20069; experiment: MIC, particular anaerobic bacterial strains; assay type: cell-based
[10] = 10 mg/kg orally once daily for 5 days
[11] = 30 mg/kg orally once daily for 5 days

## O=C(O)c1cn(C2CC2)c2cc(N3CCC(O)(COc4ccc(N5C[C@H](CO)OC5=O)cc4F)CC3)c(F)cc2c1=O [Example 1, 1-cyclopropyl-6-fluoro-7-{4-[2-fluoro-4-((R)-5-hydroxymethyl-2-oxo-oxazolidin-3-yl)-phenoxymethyl]-4-hydroxy-piperidin-1-yl}-4-oxo-1,4-dihydro-quinoline-3-carboxylic acid]
[1]
  less activity than compound of Example 5 of WO 2005/058888 (R1): 8 times
[2]
  de novo toxin A production in supernatants: inhibited de novo toxin A production
[3]; [10]
  animals surviving the 5 day treatment period: all animals
  animals surviving the relapse phase of 21 days after treatment: 40%
[3]; [11]
  animals surviving the 5 day treatment period: all animals
  animals surviving the relapse phase of 21 days after treatment without relapse: 80%
[3]; 100 mg/kg orally once daily for 5 days
  animals surviving the 5 day treatment period: all animals
[4]
  less activity than compound of Example 5 of WO 2005/058888 (R1): 4 times
[5]
  MIC: 8 µg/mL (≈ 13.7 µM)
[6]
  reduction of toxin B activity of culture supernatants: > 90%
[7]
  MIC: 8 µg/mL (≈ 13.7 µM)
[8]
  less activity than compound of Example 5 of WO 2005/058888 (R1): 4 times
[9]
  less activity than compound of Example 5 of WO 2005/058888 (R1): 8 times
